US20050250677A1, “Glycopeptide antibiotic derivatives” (priority 2002, published 2005)
Like-named read-outs stand apart in the source and are kept apart here.

Tests used:
HEL cells [1] = conditions: read-out: CC50 (HEL); HEL cells; anti-VZV table
HEL cells [2] = conditions: anti-VZV table
VZV (wild-type strains) = experiment: Anti-VZV assay (wild-type strains): virus-induced cytopathicity in HEL cell cultures; format: cell-based, varicella-zoster virus; conditions: HEL cell cultures
human lymphocyte CEM = experiment: Cytostatic activity assay, CEM cells; format: cell-based; conditions: read-out: IC50 CEM (compound concentration required to inhibit tumor cell proliferation by 50%)
HIV-1 (IIIB) = experiment: Inhibition of HIV-1 (IIIB)-induced cytopathicity (giant cell formation) in CEM cells; format: cell-based; conditions: read-out: EC50 HIV-1 (concentration required to inhibit HIV-induced giant cell formation by 50%); HIV-1, CEM cell cultures
Method: (§1) A variety of glycopeptide antibiotic derivatives of vancomycin, eremomycin and teicoplanin including their aglycon derivatives were evaluated for their inhibitory activity against HIV-1 (IIIB) and HIV-2(ROD) in CEM cell cultures.

HIV-2(ROD) = experiment: Inhibition of HIV-2 (ROD)-induced cytopathicity (giant cell formation) in CEM cells; format: cell-based; conditions: read-out: EC50 HIV-2 (concentration required to inhibit HIV-induced giant cell formation by 50%); HIV-2, CEM cell cultures
Method: as §1

[3] = VZV strain OKA, read-out: EC50 VZV (OKA)
[4] = VZV strain YS, read-out: EC50 VZV (YS)

SMILES | CC50 (HEL cells [1]) [µM] | MTC (HEL) (HEL cells [2]) | EC50 (VZV (wild-type strains); [3]) [µM] | EC50 (VZV (wild-type strains); [4]) [µM] | IC50 (human lymphocyte CEM) [µM] | EC50 (HIV-1 (IIIB)) [µM] | EC50 (HIV-2(ROD)) [µM]
CCCCc1ccc(CNC(=O)C2NC(=O)C3NC(=O)C(NC(=O)C4NC(=O)C(CC(N)=O)NC(=O)C(NC(=O)C(CC(C)C)NC)C(O)c5ccc(c(Cl)c5)Oc5cc4cc(c5OC4OC(CO)C(O)C(O)C4OC4CC(C)(N)C(O)C(C)O4)Oc4ccc(cc4)C3OC3CC(C)(N)C(O)C(C)O3)c3ccc(O)c(c3)-c3c(O)cc(O)cc32)cc1 (stereo not drawn) [Compound 76] | 98 | ≧5-20 μM | 2.7 | > 2 | – | – | –
CCCCCCCNC(=O)C1NC(=O)C2NC(=O)C(NC(=O)C3NC(=O)C(CC(N)=O)NC(=O)C(NC(=O)C(CC(C)C)NC)C(O)c4ccc(c(Cl)c4)Oc4cc3cc(c4OC3OC(CO)C(O)C(O)C3OC3CC(C)(N)C(O)C(C)O3)Oc3ccc(cc3)C2OC2CC(C)(N)C(O)C(C)O2)c2ccc(O)c(c2)-c2c(O)cc(O)cc21 (stereo not drawn) [Compound 77] | 129 | ≧20-50 μM | 7 | 5 | – | – | –
CCCCc1ccc(CNC2C(Oc3c4cc5cc3Oc3ccc(cc3Cl)C(O)C3NC(=O)C(NC(=O)C5NC(=O)C5NC(=O)C(Cc6ccc(cc6)O4)NC(=O)C(NC)c4ccc(O)c(c4)Oc4cc(O)c(Cl)c5c4)c4ccc(O)c(c4)-c4c(cc(O)c(CN5CCN(Cc6ccc(-c7ccccc7)cc6)CC5)c4O)C(C(=O)O)NC3=O)OC(C(=O)O)C(O)C2O)cc1 (stereo not drawn) [Compound 93] | – | – | – | – | 81 | 3.5 | 22
CCCCCCCCCC[N+](C)(C)CCCNCc1c(O)cc2c(c1O)-c1cc(ccc1O)C1NC(=O)C3NC(=O)C4NC(=O)C(Cc5ccc(cc5)Oc5cc3cc(c5OC3OC(C(=O)O)C(O)C(O)C3N)Oc3ccc(cc3Cl)C(O)C(NC1=O)C(=O)NC2C(=O)O)NC(=O)C(NC)c1ccc(O)c(c1)Oc1cc(O)c(Cl)c4c1 (stereo not drawn) [Compound 95] | – | – | – | – | 92 | 3.5 | ≥ 20
NC1C(=O)NC2Cc3ccc(c(Cl)c3)Oc3cc4cc(c3O)Oc3ccc(cc3Cl)C(O)C3NC(=O)C(NC(=O)C4NC(=O)C(NC2=O)c2cc(O)cc(c2)Oc2cc1ccc2O)c1ccc(O)c(c1)-c1c(O)cc(O)cc1C(C(=O)N1CCN(N=Cc2ccc(Cl)cc2)CC1)NC3=O (stereo not drawn) [Compound 113] | > 50 | ≧5-20 μM | 0.68 | 0.42 | – | – | –
CN(Cc1ccc(-c2ccccc2)cc1)Cc1c(O)cc2c(c1O)-c1cc(ccc1O)C1NC(=O)C3NC(=O)C4NC(=O)C(Cc5ccc(c(Cl)c5)Oc5cc3cc(c5O)Oc3ccc(cc3Cl)C(O)C(NC1=O)C(=O)NC2C(=O)O)NC(=O)C(N)c1ccc(O)c(c1)Oc1cc(O)cc4c1 (stereo not drawn) [Compound 117] | > 50 | ≧5-80 μM | 2.9 | 2.7 | – | – | –
NC1C(=O)NC2Cc3ccc(c(Cl)c3)Oc3cc4cc(c3O)Oc3ccc(cc3Cl)C(O)C3NC(=O)C(NC(=O)C4NC(=O)C(NC2=O)c2cc(O)cc(c2)Oc2cc1ccc2O)c1ccc(O)c(c1)-c1c(cc(O)c(CN2CCN(Cc4ccc(Cl)cc4)CC2)c1O)C(C(=O)O)NC3=O (stereo not drawn) [Compound 119] | > 50 | 20 to 400 µM | 5 | – | – | – | –
CNC(=O)C1NC(=O)C2NC(=O)C(NC(=O)C3NC(=O)C4NC(=O)C(Cc5ccc(c(Cl)c5)Oc5cc3cc(c5O)Oc3ccc(cc3Cl)C2O)NC(=O)C(N)c2ccc(O)c(c2)Oc2cc(O)cc4c2)c2ccc(O)c(c2)-c2c(O)cc(O)cc21 (stereo not drawn) [Compound 120] | > 200 | ≧20-200 μM | 9 | 10 | – | – | –
CCCCCCCCCCNCc1c(O)cc2c(c1O)-c1cc(ccc1O)C1NC(=O)C3NC(=O)C4NC(=O)C(Cc5ccc(c(Cl)c5)Oc5cc3cc(c5O)Oc3ccc(cc3Cl)C(O)C(NC1=O)C(=O)NC2C(=O)NCCCN(C)C)NC(=O)C(NC(=O)C(N)CCCCN)c1ccc(O)c(c1)Oc1cc(O)cc4c1 (stereo not drawn) [Compound 121] | 40 | ≧5-20 μM | 2.3 | 3.1 | – | – | –
CCCCc1ccc(CNC2C(=O)NC3Cc4ccc(c(Cl)c4)Oc4cc5cc(c4O)Oc4ccc(cc4Cl)C(O)C4NC(=O)C(NC(=O)C5NC(=O)C(NC3=O)c3cc(O)cc(c3)Oc3cc2ccc3O)c2ccc(O)c(c2)-c2c(cc(O)c(CN3CCN(Cc5ccc(-c6ccccc6)cc5)CC3)c2O)C(C(=O)N2CCN(Cc3ccc(-c5ccccc5)cc3)CC2)NC4=O)cc1 (stereo not drawn) [Compound 123] | > 50 | ≧5-200 μM | 2.8 | – | – | – | –
NC1C(=O)NC2Cc3ccc(c(Cl)c3)Oc3cc4cc(c3OCc3ccc(-c5ccccc5)cc3)Oc3ccc(cc3Cl)C(O)C3NC(=O)C(NC(=O)C4NC(=O)C(NC2=O)c2cc(O)cc(c2)Oc2cc1ccc2O)c1ccc(O)c(c1)-c1c(O)cc(O)cc1C(C(=O)O)NC3=O (stereo not drawn) [Compound 128] | 48 | 20 µM | 1.8 | 0.8 | – | – | –
CCCCc1ccc(CNCc2c(O)cc3c(c2O)-c2cc(ccc2O)C2NC(=O)C4NC(=O)C5NC(=O)C(Cc6ccc(c(Cl)c6)Oc6cc4cc(c6O)Oc4ccc(cc4Cl)C(O)C(NC2=O)C(=O)NC3C(=O)O)NC(=O)C(N)c2ccc(O)c(c2)Oc2cc(O)cc5c2)cc1 (stereo not drawn) [Compound 136] | > 50 | 20 to 50 µM | 3.1 | 4.1 | – | – | –
CCCCN(CCCC)c1ccc(CNC(=O)C2NC(=O)C3NC(=O)C(NC(=O)C4NC(=O)C5NC(=O)C(Cc6ccc(c(Cl)c6)Oc6cc4cc(c6O)Oc4ccc(cc4Cl)C3O)NC(=O)C(N)c3ccc(O)c(c3)Oc3cc(O)cc5c3)c3ccc(O)c(c3)-c3c(O)cc(O)cc32)cc1 (stereo not drawn) [Compound 137] | 98 | >5 to 20 µM | 0.22 | 0.43 | – | – | –
CNCc1c(O)cc2c(c1O)-c1cc(ccc1O)C1NC(=O)C3NC(=O)C4NC(=O)C(Cc5ccc(c(Cl)c5)Oc5cc3cc(c5O)Oc3ccc(cc3Cl)C(O)C(NC1=O)C(=O)NC2C(=O)O)NC(=O)C(NC(=O)OC(C)(C)C)c1ccc(O)c(c1)Oc1cc(O)cc4c1 (stereo not drawn) [Compound 140] | > 50 | ≧50-200 μM | 13 | – | – | – | –
CCCCCCCCCC(=O)N1CCN(Cc2c(O)cc3c(c2O)-c2cc(ccc2O)C2NC(=O)C4NC(=O)C5NC(=O)C(Cc6ccc(c(Cl)c6)Oc6cc4cc(c6O)Oc4ccc(cc4Cl)C(O)C(NC2=O)C(=O)NC3C(=O)O)NC(=O)C(N)c2ccc(O)c(c2)Oc2cc(O)cc5c2)CC1 (stereo not drawn) [Compound 141] | > 50 | 50 µM | 7.1 | – | – | – | –
CCCCc1ccc(CNCC(=O)N2CCN(Cc3c(O)cc4c(c3O)-c3cc(ccc3O)C3NC(=O)C5NC(=O)C6NC(=O)C(Cc7ccc(c(Cl)c7)Oc7cc5cc(c7O)Oc5ccc(cc5Cl)C(O)C(NC3=O)C(=O)NC4C(=O)O)NC(=O)C(N)c3ccc(O)c(c3)Oc3cc(O)cc6c3)CC2)cc1 (stereo not drawn) [Compound 142] | > 50 | 50 µM | 20 | – | – | – | –
CCCCc1ccc(CNCC(=O)N2CCN(Cc3c(O)cc4c(c3O)-c3cc(ccc3O)C3NC(=O)C5NC(=O)C6NC(=O)C(Cc7ccc(c(Cl)c7)Oc7cc5cc(c7O)Oc5ccc(cc5Cl)C(O)C(NC3=O)C(=O)NC4C(=O)NC)NC(=O)C(N)c3ccc(O)c(c3)Oc3cc(O)cc6c3)CC2)cc1 (stereo not drawn) [Compound 143] | > 50 | ≧20-50 μM | 2.8 | 2.6 | – | – | –
O=C1NC2C(=O)NC3C(=O)NC4C(=O)NC(C(=O)NC(C(=O)O)c5cc(O)cc(O)c5-c5cc4ccc5O)C(O)c4ccc(c(Cl)c4)Oc4cc3cc(c4O)Oc3ccc(cc3Cl)CC1NC(=O)C(NC(=O)C13CC4CC(CC(C4)C1)C3)c1ccc(O)c(c1)Oc1cc(O)cc2c1 (stereo not drawn) [Compound 164] | – | – | – | – | – | 10 | 4
